The values that follow come from patent US10160743B2, “Sulphamoylthiophenamide derivatives and the use thereof as medicaments for the treatment of hepatitis B” (Janssen Sciences Ireland UC, priority 2013, dated 2018).

For data set [1], the system named is HBV. Description: Anti-HBV activity, HepG2.2.15 cell line, HBV DNA from secreted virions by realtime PCR. Format: cell-based, Hepatitis B virus. To be noted: Hepatitis B virus, HepG2.2.15, 144 h, HepG2.2.15 cells, 6 days of treatment.
Data set [2] deals with HBV. Briefly: Anti-HBV activity, HepG2.117 cell line (Tet-off), intracellular HBV DNA by realtime PCR. Format: cell-based, Hepatitis B virus. The settings on record: Hepatitis B virus, HepG2.117, 72 h, HepG2.117 cells, 3 days of treatment.
The nature of data set [3]: Cytotoxicity in HepG2 cells, Resazurin assay. Format: cell-based. The settings on record: human, incubated for 4 days, Resazurin viability. (In general: The colour change of resazurin is a common sign of viable cells or microbes.)

As for `Cc1cc(NC(=O)c2cc(S(=O)(=O)NC(C)(C)C)sc2C)ccc1F` [Compound 25, 5-(tert-Butylsulfamoyl)-N-(4-fluoro-3-methylphenyl)-2-methylthiophene-3-carboxamide], the EC50 (usually the concentration at which the effect is half-maximal) worked out at 53 nM in data set [1] and 58 nM in data set [2]. Moreover, the CC50 (commonly the concentration giving 50% cytotoxicity) at 4 days in data set [3] was above 25 µM.

As to `Cc1sc(S(=O)(=O)NC(C)(C)C)cc1C(=O)Nc1ccc(F)c(Cl)c1` [Compound 26, 5-(tert-Butylsulfamoyl)-N-(3-chloro-4-fluorophenyl)-2-methylthiophene-3-carboxamide], the EC50 was found to be 170 nM in data set [1] and 51 nM in data set [2]. The same molecule showed a CC50 at 4 days in data set [3] of 11.5 µM.

Consider `Cc1sc(S(=O)(=O)NC(C)(C)C)cc1C(=O)Nc1ccc(F)c(Br)c1` [Compound 27, N-(3-Bromo-4-fluorophenyl)-5-(tert-butylsulfamoyl)-2-methylthiophene-3-carboxamide], for which the values for the EC50 in data set [1] and in data set [2] were 130 nM and 90 nM, respectively. This molecule also displayed a CC50 at 4 days in data set [3] of 12.2 µM.

Take `Cc1sc(S(=O)(=O)NC2(C)COC2)cc1C(=O)Nc1ccc(F)c(Cl)c1` [Compound 28, N-(3-Chloro-4-fluorophenyl)-2-methyl-5-[(3-methyloxetan-3-yl)-sulfamoyl]thiophene-3-carboxamide]: the 50% effective concentration (EC50) was 34 nM in data set [1] and 41 nM in data set [2]. In data set [3], this molecule had a CC50 at 4 days above 25 µM.

In the case of `Cc1sc(S(=O)(=O)NC2(C)COC2)cc1C(=O)Nc1ccc(F)c(Br)c1` [Compound 29, N-(3-Bromo-4-fluorophenyl)-2-methyl-5-[(3-methyloxetan-3-yl)-sulfamoyl]thiophene-3-carboxamide], the EC50 in data set [1] and in data set [2] was 120 nM throughout. This molecule also displayed a half-maximal cytotoxic concentration (CC50) at 4 days in data set [3] of 13.2 µM.

Regarding `COC(=O)C(C)(C)NS(=O)(=O)c1cc(C(=O)Nc2ccc(F)c(F)c2)c(C)s1` [Compound 30, Methyl N-({4-[(3,4-difluorophenyl)carbamoyl]-5-methylthiophen-2-yl}sulfonyl)-2-methylalaninate], the EC50 is above 1000 nM in data set [1] and 790 nM in data set [2]. This molecule also yielded a CC50 at 4 days in data set [3] above 25 µM.

Consider `COC(=O)C(C)(C)NS(=O)(=O)c1cc(C(=O)Nc2ccc(F)c(C)c2)c(C)s1` [Compound 31, Methyl N-({4-[(4-fluoro-3-methylphenyl)carbamoyl]-5-methylthiophen-2-yl}sulfonyl)-2-methylalaninate], for which the results for the EC50 in data set [1] and in data set [2] were 520 nM and 170 nM, respectively. Further, the cytotoxic concentration (CC50) at 4 days in data set [3] was above 25 µM.

On to `Cc1sc(S(=O)(=O)NC(C)(C)C(N)=O)cc1C(=O)Nc1ccc(F)c(F)c1` [Compound 32, 5-[(2-Amino-1,1-dimethyl-2-oxoethyl)sulfamoyl]-N-(3,4-difluorophenyl)-2-methylthiophene-3-carboxamide], for which the values for the EC50 in data set [1] and in data set [2] were 220 nM and 300 nM, respectively. Further, the CC50 at 4 days in data set [3] was above 25 µM.

Regarding `Cc1cc(NC(=O)c2cc(S(=O)(=O)NC(C)(C)C(N)=O)sc2C)ccc1F` [Compound 33, 5-[(2-Amino-1,1-dimethyl-2-oxoethyl)sulfamoyl]-N-(4-fluoro-3-methylphenyl)-2-methylthiophene-3-carboxamide], the figures for the EC50 in data set [1] and in data set [2] were 140 nM and 130 nM, respectively. In addition, in data set [3], the half-maximal cytotoxic concentration (CC50) at 4 days is above 25 µM.

On to `Cc1sc(S(=O)(=O)NC2(C(F)(F)F)CC2)cc1C(=O)Nc1ccc(F)c(F)c1` [Compound 34, N-(3,4-Difluorophenyl)-2-methyl-5-{[1-(trifluoromethyl)cyclopropyl]-sulfamoyl}thiophene-3-carboxamide], for which the concentration giving a half-maximal response (EC50) turned out to be 100 nM in data set [1] and 130 nM in data set [2]. The same molecule gave a CC50 at 4 days in data set [3] of 17.7 µM.

In the case of `Cc1cc(NC(=O)c2cc(S(=O)(=O)NC3(C(F)(F)F)CC3)sc2C)ccc1F` [Compound 35, N-(4-Fluoro-3-methylphenyl)-2-methyl-5-{[1-(trifluoromethyl)cyclo-propyl]sulfamoyl}thiophene-3-carboxamide], the results for the EC50 in data set [1] and in data set [2] were 60 nM and 40 nM, respectively. This molecule also registered a CC50 at 4 days in data set [3] above 25 µM.

On to `Cc1sc(S(=O)(=O)N[C@H](C)C(F)(F)F)cc1C(=O)Nc1cc(F)c(F)c(Cl)c1` [Compound 36, N-(3-Chloro-4,5-difluorophenyl)-2-methyl-5-{[(1R)-2,2,2-trifluoro-1-methylethyl]sulfamoyl}thiophene-3-carboxamide], for which the EC50 in data set [1] came to 140 nM; in data set [2], 160 nM. Moreover, the CC50 at 4 days in data set [3] was determined as 7.1 µM.

Turning to `Cc1sc(S(=O)(=O)N[C@@H](C)C(F)(F)F)cc1C(=O)Nc1cc(F)c(F)c(Cl)c1` [Compound 37, N-(3-Chloro-4,5-difluorophenyl)-2-methyl-5-{[(1S)-2,2,2-trifluoro-1-methylethyl]sulfamoyl}thiophene-3-carboxamide], the EC50 is 160 nM in data set [1] and 220 nM in data set [2]. In addition, the CC50 at 4 days in data set [3] came to 8.2 µM.

With `Cc1sc(S(=O)(=O)N[C@H](C)C(F)(F)F)cc1C(=O)Nc1ccc(F)c(Cl)c1` [Compound 38, N-(3-Chloro-4-fluorophenyl)-2-methyl-5-{[(1R)-2,2,2-trifluoro-1-methylethyl]sulfamoyl}thiophene-3-carboxamide], the EC50 in data set [1] was found to be 40 nM; in data set [2], 80 nM. Further, the half-maximal cytotoxic concentration (CC50) at 4 days in data set [3] is 14.4 µM.

For `Cc1cc(NC(=O)c2cc(S(=O)(=O)N[C@H](C)C(F)(F)F)sc2C)ccc1F` [Compound 39, N-(4-Fluoro-3-methylphenyl)-2-methyl-5-{[(1R)-2,2,2-trifluoro-1-methylethyl]sulfamoyl}thiophene-3-carboxamide], the figures for the EC50 in data set [1] and in data set [2] were 70 nM and 60 nM, respectively. This molecule returned a CC50 at 4 days in data set [3] above 25 µM.

On to `Cc1sc(S(=O)(=O)NC(C)(C)C(F)(F)F)cc1C(=O)Nc1cccc(C(F)(F)F)c1` [Compound 42, 2-methyl-5-[(2,2,2-trifluoro-1,1-dimethyl-ethyl)sulfamoyl]-N-[3-(trifluoromethyl)phenyl]thiophene-3-carboxamide], for which the results for the EC50 in data set [1] and in data set [2] were 530 nM and above 1000 nM, respectively. Besides, in data set [3], the CC50 at 4 days amounted to 16.9 µM.

Turning to `Cc1sc(S(=O)(=O)NC(CF)CF)cc1C(=O)Nc1ccc(F)c(C#N)c1` [Compound 43, N-(3-cyano-4-fluoro-phenyl)-5-[[2-fluoro-1-(fluoromethyl)ethyl]sulfamoyl]-2-methyl-thiophene-3-carboxamide], the EC50 in data set [1] was 330 nM; in data set [2], 670 nM. In data set [3], this molecule showed a CC50 at 4 days above 25 µM.

As for `Cc1cc(NC(=O)c2cc(S(=O)(=O)NC3(C)COC3)sc2C)cc(C#N)c1F` [Compound 44, N-(3-cyano-4-fluoro-5-methyl-phenyl)-2-methyl-5-[(3-methyloxetan-3-yl)sulfamoyl]thiophene-3-carboxamide], the EC50 is 820 nM in data set [1] and 450 nM in data set [2]. In addition, the CC50 at 4 days in data set [3] was above 25 µM.

`Cc1sc(S(=O)(=O)NC(C)(C)C(F)(F)F)cc1C(=O)Nc1ccc(F)c(C#N)c1` [Compound 45, N-(3-cyano-4-fluoro-phenyl)-2-methyl-5-[(2,2,2-trifluoro-1,1-dimethyl-ethyl)sulfamoyl]thiophene-3-carboxamide]: the EC50 turned out to be 280 nM in data set [1] and 420 nM in data set [2]. This molecule had a half-maximal cytotoxic concentration (CC50) at 4 days in data set [3] above 25 µM.

With `Cc1sc(S(=O)(=O)N[C@@H](C)C(F)(F)F)cc1C(=O)Nc1ccc(F)c(C#N)c1` [Compound 46, N-(3-cyano-4-fluoro-phenyl)-2-methyl-5-[[(1S)-2,2,2-trifluoro-1-methyl-ethyl]sulfamoyl]thiophene-3-carboxamide], the EC50 in data set [1] amounted to 400 nM; in data set [2], 420 nM. This molecule registered a CC50 at 4 days in data set [3] above 25 µM.

For `Cc1sc(S(=O)(=O)N[C@@H](C)C(C)(F)F)cc1C(=O)Nc1ccc(F)c(F)c1` [Compound 47, 5-[[(1S)-2,2-difluoro-1-methyl-propyl]sulfamoyl]-N-(3,4-difluorophenyl)-2-methyl-thiophene-3-carboxamide], the concentration for a half-maximal effect (EC50) was 160 nM in data set [1] and 340 nM in data set [2]. Half-maximal cytotoxicity in data set [3] (CC50 at 4 days) was put at 14.3 µM.

For the molecule `Cc1sc(S(=O)(=O)N[C@H](C)C(F)(F)F)cc1C(=O)Nc1ccc(F)c(Br)c1` [Compound 48, N-(3-bromo-4-fluoro-phenyl)-2-methyl-5-[[(1R)-2,2,2-trifluoro-1-methyl-ethyl]sulfamoyl]thiophene-3-carboxamide], the EC50 is 160 nM in data set [1] and 280 nM in data set [2]. Further, the CC50 at 4 days in data set [3] came out at 7.73 µM.

Turning to `Cc1sc(S(=O)(=O)NC2(C(F)(F)F)CCOC2)cc1C(=O)Nc1ccc(F)c(F)c1` (stereo not drawn) [Compound 49, N-(3,4-difluorophenyl)-2-methyl-5-[[3-(trifluoromethyl)tetrahydrofuran-3-yl]sulfamoyl]thiophene-3-carboxamide], the results for the EC50 in data set [1] and in data set [2] were 290 nM and 270 nM, respectively. The 50% cytotoxic concentration (CC50) at 4 days in data set [3] was above 25 µM.

As to `Cc1sc(S(=O)(=O)NC(C)(C)C(F)(F)F)cc1C(=O)Nc1ccc(F)c(F)c1` [Compound 50, N-(3,4-difluorophenyl)-2-methyl-5-[(2,2,2-trifluoro-1,1-dimethyl-ethyl)sulfamoyl]thiophene-3-carboxamide], the EC50 was determined as 140 nM in data set [1] and 190 nM in data set [2]. Also, the CC50 at 4 days in data set [3] was above 25 µM.

`Cc1sc(S(=O)(=O)N[C@H](C)C(F)(F)F)cc1C(=O)Nc1ccc(F)c(C#N)c1` [Compound 51, N-(3-cyano-4-fluoro-phenyl)-2-methyl-5-[[(1R)-2,2,2-trifluoro-1-methyl-ethyl]sulfamoyl]thiophene-3-carboxamide]: the EC50 amounted to 250 nM in data set [1] and 170 nM in data set [2]. The CC50 at 4 days in data set [3] is above 25 µM.

`Cc1sc(S(=O)(=O)NC(CF)CF)cc1C(=O)Nc1ccc(F)c(F)c1` [Compound 52, N-(3,4-difluorophenyl)-5-[[2-fluoro-1-(fluoromethyl)ethyl]sulfamoyl]-2-meth thiophene-3-carboxamide]: the EC50 in data set [1] and in data set [2] was 170 nM in each case. This molecule also displayed a CC50 at 4 days in data set [3] above 25 µM.
